Several values for one entry are separate records, joined by “and”; a condition that tells them apart may be missing. Equal entries are not always repeated.
Assays:
[1] = spectral region about 640 to about 940 nanometers; cited from earlier work
[2] = Absorption peaks of photosensitizers; type: physicochemical; details: relevant absorption peaks, Table 1
Description: FIG. 1 is a graph showing the absorption bands of protoporphyrin IX, which is produced as a result of 5-aminolevulinic acid metabolism in a mammal. Protoporphyrin IX has an absorption band located in the blue spectral region (the 410 nanometer Soret band) and other weaker absorption bands in the 500 to 650 nanometer visible region, namely at about 506 nanometers, 546 nanometers, and 578 nanometers. […] Table 1 lists several photosensitizers useful in the practice of the invention, and identifies relevant absorption peaks for each of the listed photosensitizers. While the 460 nanometer to 620 nanometer wavelength range includes the relatively strong absorption peaks of oxyhemoglobin and deoxyhemoglobin, these blood components have other absorption peaks (although of lower relative maxima) at longer wavelengths. For example, deoxyhemoglobin has a weaker absorption peak at about 757 nanometers, and oxyhemoglobin has a weaker absorption peak at about 920 nanometers. Pulsed light sources in the red and near infrared (up to approximately 940 nanometers), for example, the flash lamp pumped alexandrite laser (755 nanometer), or semiconductor diode lasers, for example, gallium arsenide laser (810 nanometer) are capable of selective photothermolysis of blood vessels, including the microvessels in psoriatic lesions. Accordingly, under certain circumstances, it may be advantageous to use a source of pulsed or scanned irradiation having a wavelength in the range from about 640 nanometers to about 940 nanometers to perform combined selective photothermolysis of blood vessels and photodynamic therapy (using the appropriate photosensitizer) in the target region. Useful photosensitizers that absorb light in this spectral region include, for example, Pd(II)-octabutoxyphthalocyanine (732 nm, 838 nm), Si(IV)-napthalocyanine (773 nm)(Jori (1996) J. PHOTOCHEM. PHOTOBIOL. B 87-93), and 5,15-etiobacteriopurpurin (768 nm, 843 nm) (U.S. Pat. No. 6,376,483 B1).

Si(IV)-napthalocyanine
wavelength of light absorbed [1]: 773 nm

nickel 5,10-bis-acrylate etioporphyrin I
Wavelength of absorption peaks [2]: 580 nm

O=C([O-])c1c(Cl)c(Cl)c(Cl)c(Cl)c1-c1c2cc(I)c(=O)c(I)c-2oc2c(I)c([O-])c(I)cc12.[Na+].[Na+] [rose bengal]
Wavelength of absorption peaks [2]: 548 nm

5,15-etiobacteriopurpurin
wavelength of light absorbed [1]: 768 nm and 843 nm

Pd(II)-octabutoxyphthalocyanine
wavelength of light absorbed [1]: 732 nm and 838 nm

benzoporphyrin derivative mono-acid
Wavelength of absorption peaks [2]: ˜585 nm

Source: US20040048842A1, “Method of treating skin disorders” (priority 2002, published 2004)
